Results on 15 compounds are retold here after patent US20240238423A9, “TETRAHYDROISOQUINOLINE HETEROBIFUNCTIONAL BCL-XL DEGRADERS” (Treeline Biosciences, Inc., priority 2022, published 2024).

Where two headings read alike, the source gives them in different places.

For the test, the target named is T1, Human BCL-XL protein (N-terminal HiBiT tagged BCL-XL in HT1080 cells) (Homo sapiens, UniProt Q07817).
T1 construct: expressed in transfected cells; host or cells: HT-1080 (ATCC CCL-121), stably transduced with lentivirus pLV-UBC-N-HiBiT-BCL-XL-PGK-puro and selected with puromycin
As to the kind of experiment: HiBiT based degradation assay. The test is classed as cell-based. The note with it: HT1080 cells expressing HiBiT-BCL-XL; for Ymin (24 h) / Ymin (6 h): BCL-XL degradation normalized with DMSO control; for DC50: BCL-XL degradation. The method, boiled down: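 HT1080 cells stably transduced by lentivirus with N-terminally HiBiT-tagged human BCL-XL and kept under 1 μg/mL puromycin selection were seeded at three thousand cells per well in 40 μL RPMI 1640 into 384-well plates pre-spotted with compounds across a concentration range. Luminescence was read on a PHERAstar FSX, normalized to DMSO, and fitted with a four-parameter logistic model.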
A general note: HiBiT is a short tag that completes a luciferase, so light tracks the accessible tagged protein.

T1 sequence (Q07817 whole entry): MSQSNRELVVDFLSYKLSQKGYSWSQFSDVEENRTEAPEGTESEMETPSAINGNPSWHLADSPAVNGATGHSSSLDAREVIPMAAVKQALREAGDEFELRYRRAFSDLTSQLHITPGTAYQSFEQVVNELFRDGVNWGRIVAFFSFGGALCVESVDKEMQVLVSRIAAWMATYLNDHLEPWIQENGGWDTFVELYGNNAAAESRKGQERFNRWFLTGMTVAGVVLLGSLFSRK

As to `Cc1c(O[C@H]2CC[C@H](CCCN3CCC(Oc4cccc5c(C6CCC(=O)NC6=O)nn(C)c45)CC3)CC2)cccc1-c1ccc(N2CCc3cccc(C(=O)Nc4nc5ccccc5s4)c3C2)nc1C(=O)O` (stereo partly shown) [Compound 338a, 6-(8-(benzo[d]thiazol-2-ylcarbamoyl)-3,4-dihydroisoquinolin-2(1H)-yl)-3-(3-(((1s,4r)-4-(3-(4-((3-(2,6-dioxopiperidin-3-yl)-1-methyl-1H-indazol-7-yl)oxy)piperidin-1-yl)propyl)cyclohexyl)oxy)-2-methylphenyl)picolinic acid], for the setting “24 h”, the “Ymin (24 h)” value is recorded as “A (Ymin < 50%)”. Moreover, the DC50 (24 h, read-out: EC50 (24 h)) is < 0.1 µM.
For the compound `Cc1c(OCCCN2CCN(CC(=O)Nc3cccc4c(C5CCC(=O)NC5=O)nn(C)c34)[C@H](C(F)(F)F)C2)cccc1-c1ccc(N2CCc3cccc(C(=O)Nc4nc5ccccc5s4)c3C2)nc1C(=O)O` (stereo partly drawn) [Compound 218b, 6-(8-(benzo[d]thiazol-2-ylcarbamoyl)-3,4-dihydroisoquinolin-2(1H)-yl)-3-(3-(3-((3S)-4-(2-((3-(2,6-dioxopiperidin-3-yl)-1-methyl-1H-indazol-7-yl)amino)-2-oxoethyl)-3-(trifluoromethyl)piperazin-1-yl)propoxy)-2-methylphenyl)picolinic acid], for the setting “6 h”, the “Ymin (6 h)” value is reported as “C (Ymin ≥ 70%)”. Besides, the “Ymin (24 h)” value (24 h) is on record as “C (Ymin ≥ 70%)”. The DC50 is 1 to 10 µM (6 h, read-out: EC50 (6 h)) and 0.1 to 1 µM (24 h, read-out: EC50 (24 h)).
For `Cc1c(O[C@H]2CC[C@H](CCCN3CCN(c4ccc5c(C6CCC(=O)NC6=O)nn(C)c5c4)C[C@@H]3C(F)(F)F)CC2)cccc1-c1ccc(N2CCc3cccc(C(=O)Nc4nc5ccccc5s4)c3C2)nc1C(=O)O` (stereo partly drawn) [Compound 347a, 6-(8-(benzo[d]thiazol-2-ylcarbamoyl)-3,4-dihydroisoquinolin-2(1H)-yl)-3-(3-(((1s,4r)-4-(3-((2R)-4-(3-(2,6-dioxopiperidin-3-yl)-1-methyl-1H-indazol-6-yl)-2-(trifluoromethyl)piperazin-1-yl)propyl)cyclohexyl)oxy)-2-methylphenyl)picolinic acid], the “Ymin (24 h)” value (24 h) was “A (Ymin < 50%)”. In addition, the DC50 (24 h, read-out: EC50 (24 h)) is < 0.1 µM.
On the same counts, the results for `Cc1c(OC[C@@H](C)CC2CCN(CC(=O)Nc3ccc4c(C5CCC(=O)NC5=O)nn(C)c4c3)CC2)cccc1-c1ccc(N2CCc3cccc(C(=O)Nc4nc5ccccc5s4)c3C2)nc1C(=O)O` (single isomer, unassigned) [Compound 263b] are “A (Ymin < 50%)” and < 0.1 µM.
In the same order, the values of `Cc1c(OCCC[C@@H]2CCN(CC(=O)Nc3ccc4c(C5CCC(=O)NC5=O)nn(C)c4c3)CC2(F)F)cccc1-c1ccc(N2CCc3cccc(C(=O)Nc4nc5ccccc5s4)c3C2)nc1C(=O)O` (stereo partly drawn) [Compound 193a, 6-(8-(benzo[d]thiazol-2-ylcarbamoyl)-3,4-dihydroisoquinolin-2(1H)-yl)-3-(3-(3-((4R)-1-(2-((3-(2,6-dioxopiperidin-3-yl)-1-methyl-1H-indazol-6-yl)amino)-2-oxoethyl)-3,3-difluoropiperidin-4-yl)propoxy)-2-methylphenyl)picolinic acid] are “B (50% ≤ Ymin < 70%)” and 0.1 to 1 µM.
Turning to `Cc1cc2c(C3CCC(=O)NC3=O)nn(C)c2cc1N1CCN(CCCC[C@H]2CC[C@H](Oc3cccc(-c4ccc(N5CCc6cccc(C(=O)Nc7nc8ccccc8s7)c6C5)nc4C(=O)O)c3C)CC2)CC1` (stereo partly shown) [Compound 325a, 6-(8-(benzo[d]thiazol-2-ylcarbamoyl)-3,4-dihydroisoquinolin-2(1H)-yl)-3-(3-(((1s,4r)-4-(4-(4-(3-(2,6-dioxopiperidin-3-yl)-1,5-dimethyl-1H-indazol-6-yl)piperazin-1-yl)butyl)cyclohexyl)oxy)-2-methylphenyl)picolinic acid], the “Ymin (24 h)” value (24 h) is listed as “A (Ymin < 50%)”. The DC50 (24 h, read-out: EC50 (24 h)) was < 0.1 µM.
On the same counts, the results for `Cc1c(Oc2ccc(CCCC(=O)N3CCN(c4ccc5c(C6CCC(=O)NC6=O)nn(C)c5c4)CC3)cc2)cccc1-c1ccc(N2CCc3cccc(C(=O)Nc4nc5ccccc5s4)c3C2)nc1C(=O)O` (stereo not shown) [Compound 178, 6-(8-(benzo[d]thiazol-2-ylcarbamoyl)-3,4-dihydroisoquinolin-2(1H)-yl)-3-(3-(4-(4-(4-(3-(2,6-dioxopiperidin-3-yl)-1-methyl-1H-indazol-6-yl)piperazin-1-yl)-4-oxobutyl)phenoxy)-2-methylphenyl)picolinic acid] are “B (50% ≤ Ymin < 70%)” and < 0.1 µM.
In the same order, the values of `Cc1c(OCCC[C@H]2CCN(CC(=O)Nc3ccc4c(C5CCC(=O)NC5=O)nn(C)c4c3)[C@H](C)C2)cccc1-c1ccc(N2CCc3cccc(C(=O)Nc4nc5ccccc5s4)c3C2)nc1C(=O)O` (stereo partly drawn) [Compound 343b, 6-[8-(1,3-benzothiazol-2-ylcarbamoyl)-3,4-dihydro-1H-isoquinolin-2-yl]-3-[3-[3-[(2R,4S)-1-[2-[[3-(2,6-dioxo-3-piperidyl)-1-methyl-indazol-6-yl]amino]-2-oxo-ethyl]-2-methyl-4-piperidyl]propoxy]-2-methyl-phenyl]pyridine-2-carboxylic acid] are “A (Ymin < 50%)” and < 0.1 µM.
In the same order, the values of `Cc1c(OCCC[C@@H]2CCN(CC(=O)Nc3cccc4c(C5CCC(=O)NC5=O)nn(C)c34)C2)cccc1-c1ccc(N2CCc3cccc(C(=O)Nc4nc5ccccc5s4)c3C2)nc1C(=O)O` (stereo partly drawn) [Compound 240a, 6-[8-(1,3-benzothiazol-2-ylcarbamoyl)-3,4-dihydro-1H-isoquinolin-2-yl]-3-[3-[3-[(3R)-1-[2-[[3-(2,6-dioxo-3-piperidyl)-1-methyl-indazol-7-yl]amino]-2-oxo-ethyl]pyrrolidin-3-yl]propoxy]-2-methyl-phenyl]pyridine-2-carboxylic acid] are “B (50% ≤ Ymin < 70%)” and < 0.1 µM.
For the compound `Cc1c(OCCCC2CCN(CCc3ccc4c(C5CCC(=O)NC5=O)nn(C)c4c3)CC2)cccc1-c1ccc(N2CCc3cccc(C(=O)Nc4nc5ccccc5s4)c3C2)nc1C(=O)O` (stereo not shown) [Compound 303, 6-(8-(benzo[d]thiazol-2-ylcarbamoyl)-3,4-dihydroisoquinolin-2(1H)-yl)-3-(3-(3-(1-(2-(3-(2,6-dioxopiperidin-3-yl)-1-methyl-1H-indazol-6-yl)ethyl)piperidin-4-yl)propoxy)-2-methylphenyl)picolinic acid], under “24 h”, the “Ymin (24 h)” value is “A (Ymin < 50%)”. The DC50 (24 h, read-out: EC50 (24 h)) was < 0.1 µM.
As for `Cc1c(OCC[C@H](C)C2CCN(CC(=O)Nc3ccc4c(C5CCC(=O)NC5=O)nn(C)c4c3)CC2)cccc1-c1ccc(N2CCc3cccc(C(=O)Nc4nc5ccccc5s4)c3C2)nc1C(=O)O` (stereo partly drawn) [Compound 167b, 6-[8-(1,3-benzothiazol-2-ylcarbamoyl)-3,4-dihydro-1H-isoquinolin-2-yl]-3-[3-[(3S)-3-[1-[2-[[3-(2,6-dioxo-3-piperidyl)-1-methyl-indazol-6-yl]amino]-2-oxo-ethyl]-4-piperidyl]butoxy]-2-methyl-phenyl]pyridine-2-carboxylic acid], where the note is “24 h”, the “Ymin (24 h)” value was “B (50% ≤ Ymin < 70%)”. Further, the DC50 (24 h, read-out: EC50 (24 h)) was < 0.1 µM.
As for `Cc1cc(Oc2ccc(CCC(=O)Nc3ccc4c(C5CCC(=O)NC5=O)nn(C)c4c3)cc2)ccc1-c1ccc(N2CCc3cccc(C(=O)Nc4nc5ccccc5s4)c3C2)nc1C(=O)O` (stereo not shown) [Compound 139, 6-(8-(benzo[d]thiazol-2-ylcarbamoyl)-3,4-dihydroisoquinolin-2(1H)-yl)-3-(4-(4-(3-((3-(2,6-dioxopiperidin-3-yl)-1-methyl-1H-indazol-6-yl)amino)-3-oxopropyl)phenoxy)-2-methylphenyl)picolinic acid], the “Ymin (6 h)” value (6 h) was “B (50% ≤ Ymin < 70%)”. Moreover, under “24 h”, the “Ymin (24 h)” value is listed as “B (50% ≤ Ymin < 70%)”. For the same compound, the DC50 (6 h, read-out: EC50 (6 h)) was in the range of 0.1 to 1 µM and the DC50 (24 h, read-out: EC50 (24 h)) lay within 0.1 to 1 µM.
Turning to `Cc1c(OCCCC2CCN(CC(=O)Nc3ccc4c(C5CCC(=O)NC5=O)nn(C)c4c3F)CC2)cccc1-c1ccc(N2CCc3cccc(C(=O)Nc4nc5ccccc5s4)c3C2)nc1C(=O)O` (stereo not shown) [Compound 302, 6-[8-(1,3-benzothiazol-2-ylcarbamoyl)-3,4-dihydro-1H-isoquinolin-2-yl]-3-[3-[3-[1-[2-[[3-(2,6-dioxo-3-piperidyl)-7-fluoro-1-methyl-indazol-6-yl]amino]-2-oxo-ethyl]-4-piperidyl]propoxy]-2-methyl-phenyl]pyridine-2-carboxylic acid], the “Ymin (24 h)” value (24 h) was “B (50% ≤ Ymin < 70%)”. For the same compound, the DC50 (24 h, read-out: EC50 (24 h)) was < 0.1 µM.
On the same counts, the results for `Cc1c(O[C@H]2CC[C@@H](CCCN3CCN(c4ccc5c(C6CCC(=O)NC6=O)nn(C)c5c4)CC3)CC2)cccc1-c1ccc(N2CCc3cccc(C(=O)Nc4nc5ccccc5s4)c3C2)nc1C(=O)O` (stereo partly shown) [Compound 148b, 6-(8-(benzo[d]thiazol-2-ylcarbamoyl)-3,4-dihydroisoquinolin-2(1H)-yl)-3-(3-(((1r,4s)-4-(3-(4-(3-(2,6-dioxopiperidin-3-yl)-1-methyl-1H-indazol-6-yl)piperazin-1-yl)propyl)cyclohexyl)oxy)-2-methylphenyl)picolinic acid] are “A (Ymin < 50%)” and < 0.1 µM.
On the same counts, the results for `Cc1c(O[C@H]2CC[C@H](CCCN3CCN(c4ccc5c(C6CCC(=O)NC6=O)nn(C)c5c4)C(C)(C)C3)CC2)cccc1-c1ccc(N2CCc3cccc(C(=O)Nc4nc5ccccc5s4)c3C2)nc1C(=O)O` (stereo partly shown) [Compound 318a, 6-(8-(benzo[d]thiazol-2-ylcarbamoyl)-3,4-dihydroisoquinolin-2(1H)-yl)-3-(3-(((1s,4r)-4-(3-(4-(3-(2,6-dioxopiperidin-3-yl)-1-methyl-1H-indazol-6-yl)-3,3-dimethylpiperazin-1-yl)propyl)cyclohexyl)oxy)-2-methylphenyl)picolinic acid] are “A (Ymin < 50%)” and < 0.1 µM.
